# Measured values taken from patent US20160029629A1, “LAWN GROWTH-PROMOTING AGENT AND METHOD OF USING SAME” (BAYER CROPSCIENCE AKTIENGESELLSCHAFT, priority 2013, published 2016).
# Tests used:
# Zoysia Matrella = assay: Biological Example 1: sod growth test, weight of roots, runners and erect stems after spray treatment; format: in vivo; conditions: for Roots weight: 334 ppm spray, 2,000 L/ha; for Roots weight / Erect stem weight / Erect stems/runners / Roots weight vs. untreated / Roots/(roots + runners + erect stems) / Roots/runners / Runner weight: 170 days later; for Erect stem weight / Erect stems/runners / Roots weight vs. untreated / Roots/(roots + runners + erect stems) / Roots/runners / Runner weight: 334 ppm spray
# From the text: Test crop: Zoysia Matrella
# Test method: Z. Matrella sod was laid in a roughly 15 cm checked pattern, and, approximately one month later, penflufen prepared to a predetermined concentration (Cerenturf Forte; aqueous suspension of 22.7 wt % penflufen and 77.3% surfactant and water, prepared according to a normal method) was sprayed thereon (2,000 L/ha). 170 days later, a hole cutter was used to cut out sod sections and interstitial sections, the sections were separated into roots, runners, and erect stems, and the weight of each was measured.
# [1] = system: brown patch (Rhizoctonia solani); conditions: in vivo; cited from earlier work
# Agrostis stolonifera = assay: Biologic Example 2: seeded lawn test, length of above-ground and root portions after soil treatment; format: in vivo
# Protocol: Test crop: Agrostis stolonifera Test method: Plastic cups (diameter 20 cm, depth 5 cm) were filled with a soil mixture (1:1 mixture of sand and mulch), the soil was treated (2,000 L/ha water) with penflufen prepared to a predetermined concentration (Cerenturf Forte) on the day A. stolonifera was planted and at 0.5 leaf cycles, after which germination state was examined. In order to ensure evenness of irrigation, an atomizer was used for a fixed number of pushes, and water amount was monitored so as to be uniform. A basal application was not used. Examination method: Cuttings were taken at random from the test area, and the lengths of the above-ground and root portions were measured.
# [2] = 142 ppm, treated at 0.5 leaf cycles, 5 days after treatment
# [3] = 142 ppm, treated on day of planting, 20 days after treatment
# [4] = 283 ppm, treated at 0.5 leaf cycles, 5 days after treatment
# [5] = 283 ppm, treated on day of planting, 20 days after treatment
# [6] = 525 ppm, treated at 0.5 leaf cycles, 5 days after treatment
# [7] = 525 ppm, treated on day of planting, 20 days after treatment
smiles,measurement,setting,value
"Cc1nn(C)c(F)c1C(=O)Nc1ccccc1C(C)CC(C)C (stereo not shown) [Penflufen, N-[2-(1,3-dimethylbutyl)phenyl]-5-fluoro-1,3-dimethyl-1H-pyrazol-4-carboxamide]",Amount of roots compared to the untreated area,Zoysia Matrella; both the interstitial section and the sod section,increase in the amount of roots
same,"Ratio of the root weight to the total weight of the roots, runners, and erect stems, treated vs untreated area",Zoysia Matrella; in vivo,higher in the treated area than in the untreated area
same,Amount of roots compared to the untreated area,Zoysia Matrella; interstitial section,especially marked increase
same,Roots weight,Zoysia Matrella; interstitial section,1.13 g
same,Erect stem weight,Zoysia Matrella; interstitial section,4.57 g
same,Erect stems/runners,Zoysia Matrella; interstitial section,124%
same,Roots weight vs. untreated,Zoysia Matrella; interstitial section,127%
same,Roots/(roots + runners + erect stems),Zoysia Matrella; interstitial section,12.02%
same,Roots/runners,Zoysia Matrella; interstitial section,31%
same,Runner weight,Zoysia Matrella; interstitial section,3.70 g
same,Roots weight,Zoysia Matrella; sod section,1.57 g
same,Erect stem weight,Zoysia Matrella; sod section,11.52 g
same,Erect stems/runners,Zoysia Matrella; sod section,130%
same,Roots weight vs. untreated,Zoysia Matrella; sod section,103%
same,Roots/(roots + runners + erect stems),Zoysia Matrella; sod section,7.16%
same,Roots/runners,Zoysia Matrella; sod section,18%
same,Runner weight,Zoysia Matrella; sod section,8.84 g
same,Effectiveness against brown patch,[1],extremely effective
same,Above-ground portion (mm),Agrostis stolonifera; [2],18.8 mm
same,Roots (mm),Agrostis stolonifera; [2],3.9 mm
same,Roots/above-ground portion %,Agrostis stolonifera; [2],20.6%
same,Above-ground portion (mm),Agrostis stolonifera; [3],15.9 mm
same,Roots (mm),Agrostis stolonifera; [3],3.3 mm
same,Roots/above-ground portion %,Agrostis stolonifera; [3],20.8%
same,Above-ground portion (mm),Agrostis stolonifera; [4],17.3 mm
same,Roots (mm),Agrostis stolonifera; [4],3.5 mm
same,Roots/above-ground portion %,Agrostis stolonifera; [4],20.1%
same,Above-ground portion (mm),Agrostis stolonifera; [5],17.3 mm
same,Roots (mm),Agrostis stolonifera; [5],3.2 mm
same,Roots/above-ground portion %,Agrostis stolonifera; [5],18.8%
same,Root growth relative to above-ground portions,"Agrostis stolonifera; registered weight (283 ppm) and half-weight, planting day and 0.5 leaf cycle treatment",root growth tended to be promoted over that of above-ground portions
Cc1nc(C(F)(F)F)c(C(=O)Nc2c(Br)cc(OC(F)(F)F)cc2Br)s1 [Thifluzamide],Above-ground portion (mm),Agrostis stolonifera; [6],16.9 mm
same,Roots (mm),Agrostis stolonifera; [6],2.0 mm
same,Roots/above-ground portion %,Agrostis stolonifera; [6],12.0%
same,Above-ground portion (mm),Agrostis stolonifera; [7],15.3 mm
same,Roots (mm),Agrostis stolonifera; [7],1.4 mm
same,Roots/above-ground portion %,Agrostis stolonifera; [7],9.1%
